In PubChem BioAssay AID330 (DTP/NCI, 2004):
Where “and” joins values, the source holds several entries; their conditions need not be identical. Identical values can stand only once. Toxic doses and inconclusive results are not listed. Rule for the calls: active = survival T/C of 150% or more; inactive = T/C below 125% in these data.

Test system: P388 leukemia ip, CD2F1 mice, survival T/C
Assay: NCI In Vivo Anticancer Drug Screen. Data for tumor model P388 Leukemia (intraperitoneal) in CD2F1 (CDF1) mice
Settings: endpoint: median survival time, higher = longer survival
Outline: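 Mice carrying the transplanted tumor received test compound or vehicle. Survival was recorded in each group, and the value is the treated-group measurement divided by that of the vehicle-treated control group.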

[1] = dose: 50.0 mg/kg/injection, schedule: Q01DX009 (ip), vehicle: Klucel (hydroxypropylcellulose) (HPC)
[2] = dose: 100.0 mg/kg/injection, schedule: Q01DX009 (ip), vehicle: Klucel (hydroxypropylcellulose) (HPC)
[3] = dose: 200.0 mg/kg/injection, schedule: Q01DX009 (ip), vehicle: Klucel (hydroxypropylcellulose) (HPC)
[4] = dose: 50.0 mg/kg/injection, schedule: Q01DX009 (ip), vehicle: saline with Tween-80
[5] = dose: 100.0 mg/kg/injection, schedule: Q01DX009 (ip), vehicle: saline with Tween-80
[6] = dose: 200.0 mg/kg/injection, schedule: Q01DX009 (ip), vehicle: saline with Tween-80
[7] = dose: 60.0 mg/kg/injection, schedule: Q01DX005 (ip), vehicle: saline
[8] = dose: 120.0 mg/kg/injection, schedule: Q01DX005 (ip), vehicle: saline
[9] = dose: 240.0 mg/kg/injection, schedule: Q01DX005 (ip), vehicle: saline
[10] = dose: 6.25 mg/kg/injection, schedule: Q01DX005 (ip), vehicle: saline with Tween-80
[11] = dose: 12.5 mg/kg/injection, schedule: Q01DX005 (ip), vehicle: saline with Tween-80
[12] = dose: 25.0 mg/kg/injection, schedule: Q01DX005 (ip), vehicle: saline with Tween-80
[13] = dose: 50.0 mg/kg/injection, schedule: Q01DX005 (ip), vehicle: Klucel (hydroxypropylcellulose) (HPC)
[14] = dose: 50.0 mg/kg/injection, schedule: Q01DX005 (ip), vehicle: saline with Tween-80
[15] = dose: 100.0 mg/kg/injection, schedule: Q01DX005 (ip), vehicle: Klucel (hydroxypropylcellulose) (HPC)
[16] = dose: 100.0 mg/kg/injection, schedule: Q04DX002 (ip), vehicle: saline
[17] = dose: 200.0 mg/kg/injection, schedule: Q04DX002 (ip), vehicle: saline
[18] = dose: 100.0 mg/kg/injection, schedule: Q01DX005 (ip), vehicle: saline with Tween-80
[19] = dose: 200.0 mg/kg/injection, schedule: Q01DX005 (ip), vehicle: saline with Tween-80
[20] = dose: 12.5 mg/kg/injection, schedule: Q01DX009 (ip), vehicle: saline with Tween-80
[21] = dose: 25.0 mg/kg/injection, schedule: Q01DX009 (ip), vehicle: saline with Tween-80
[22] = dose: 60.0 mg/kg/injection, schedule: Q01DX005 (ip), vehicle: saline with Tween-80
[23] = dose: 120.0 mg/kg/injection, schedule: Q01DX005 (ip), vehicle: saline with Tween-80
[24] = dose: 240.0 mg/kg/injection, schedule: Q01DX005 (ip), vehicle: saline with Tween-80

Measured: T/C

CC(=O)Oc1cc(C)c(Cl)c2c(OC(C)=O)cc(C(C)=O)c(O)c12
inactive: [1] 91 % of control | [2] 91 % of control | [3] 90 % of control

O=C(NC(=O)C(F)(F)C(F)(F)C(F)(F)F)Nc1ccc(F)c(Cl)c1
inactive: [4] 107 % of control | [5] 99 % of control | [6] 105 % of control

CCN(CC)CC(C)(C)C(=O)/C=C/c1ccccc1
inactive: [7] 103 % of control | [8] 102 % of control | [9] 115 % of control

Nc1c(S(=O)(=O)O)cc(Nc2cccc(S(=O)(=O)/C=C/S(=O)(=O)O)c2)c2c1C(=O)c1ccccc1C2=O
inactive: [7] 99 % of control | [8] 104 % of control | [9] 111 % of control

Cc1cc(C(=O)Nc2ccc(NC3=NCCN3)cc2)cc(C(=O)Nc2ccc(NC3=NCCN3)cc2)c1
inactive: dose: 3.12 mg/kg/injection, schedule: Q01DX005 (ip), vehicle: saline with Tween-80 100 % of control | [10] 107 % of control | [11] 106 % of control

CC1(C(O)CO)C=C2CCC3C(C)(C)C(O)CCC3(C)C2CC1 (stereo not drawn)
inactive: dose: 2.25 mg/kg/injection, schedule: Q01DX009 (ip), vehicle: Klucel (hydroxypropylcellulose) (HPC) 108 % of control | dose: 4.5 mg/kg/injection, schedule: Q01DX009 (ip), vehicle: Klucel (hydroxypropylcellulose) (HPC) 103 % of control | dose: 9.0 mg/kg/injection, schedule: Q01DX009 (ip), vehicle: Klucel (hydroxypropylcellulose) (HPC) 103 % of control | dose: 18.0 mg/kg/injection, schedule: Q01DX009 (ip), vehicle: Klucel (hydroxypropylcellulose) (HPC) 93 % of control

CCC1C2Cc3ccc(O)cc3C1(CC)CCN2C (stereo not drawn)
inactive: [10] 99 % of control | [11] 99 % of control | [12] 95 % of control | [13] 103 % of control | [14] 100 % of control | [15] 106 % of control

Cc1ccc(NC(=S)SCc2ccc(Cl)c(Cl)c2)cc1C
inactive: [1] 116 % of control | dose: 50.0 mg/kg/injection, schedule: Q01DX009 (ip), vehicle: suspension in saline 96 % of control | [2] 113 % of control | dose: 100.0 mg/kg/injection, schedule: Q01DX009 (ip), vehicle: suspension in saline 100 % of control | [3] 109 % of control | dose: 200.0 mg/kg/injection, schedule: Q01DX009 (ip), vehicle: suspension in saline 101 % of control

Cc1ccc(C(=O)Cc2ccccc2C#N)cc1
inactive: dose: 12.5 mg/kg/injection, schedule: Q01DX005 (ip), vehicle: Klucel (hydroxypropylcellulose) (HPC) 102 % of control and 103 % of control | dose: 25.0 mg/kg/injection, schedule: Q01DX005 (ip), vehicle: Klucel (hydroxypropylcellulose) (HPC) 88 % of control and 97 % of control | [13] 97 % of control | [15] 105 % of control

CCOP(=S)(N/N=C(\C)c1ccc(C)s1)OCC
inactive: [13] 104 % of control | [15] 113 % of control | dose: 200.0 mg/kg/injection, schedule: Q01DX005 (ip), vehicle: Klucel (hydroxypropylcellulose) (HPC) 114 % of control

CCN1/C(=C/C=C2\CCC(/C=C/c3sc4ccc(Cl)cc4[n+]3CC)=C2N(c2ccccc2)c2ccccc2)Sc2ccc(Cl)cc21
inactive: [1] 107 % of control
active: dose: 6.25 mg/kg/injection, schedule: Q01DX009 (ip), vehicle: Klucel (hydroxypropylcellulose) (HPC) 156 % of control

CCC[CH2][Sn]1([CH2]CCC)[O]C(=O)CC[S]1
inactive: dose: 3.13 mg/kg/injection, schedule: Q01DX005 (ip), vehicle: saline with Tween-80 121 % of control | [10] 115 % of control and 120 % of control | [11] 121 % of control

CCCOP(=O)(NNP(=O)(OCCC)OCCC)OCCC
inactive: [4] 106 % of control | [5] 116 % of control | [6] 116 % of control

O=C(CNC(=O)OCc1ccccc1)OC(=O)CNC(=O)OCc1ccccc1
inactive: dose: 100.0 mg/kg/injection, schedule: Q04DX002 (ip), vehicle: Klucel (hydroxypropylcellulose) (HPC) 96 % of control | dose: 200.0 mg/kg/injection, schedule: Q04DX002 (ip), vehicle: Klucel (hydroxypropylcellulose) (HPC) 93 % of control | dose: 400.0 mg/kg/injection, schedule: Q04DX002 (ip), vehicle: Klucel (hydroxypropylcellulose) (HPC) 93 % of control

CCCCCCCCCCCC(O)CCCC(O)CC(O)CC(O)CC1CC=CC(=O)O1 (stereo not drawn)
inactive: dose: 12.5 mg/kg/injection, schedule: Q01DX009 (ip), vehicle: Klucel (hydroxypropylcellulose) (HPC) 106 % of control | dose: 25.0 mg/kg/injection, schedule: Q01DX009 (ip), vehicle: Klucel (hydroxypropylcellulose) (HPC) 103 % of control | [1] 112 % of control

CCN(CC)CCSCCNc1cc(OC)cc2cccnc12
inactive: dose: 12.5 mg/kg/injection, schedule: Q01DX005 (ip), vehicle: saline 101 % of control | dose: 25.0 mg/kg/injection, schedule: Q01DX005 (ip), vehicle: saline 101 % of control | dose: 50.0 mg/kg/injection, schedule: Q01DX005 (ip), vehicle: saline 89 % of control and 97 % of control

c1ccc(CCC(Cc2cccnc2)c2ccccn2)nc1 (stereo not drawn)
inactive: [16] 95 % of control | [17] 104 % of control

C=C1CC2(CC3CC2C2CCCC32)OC1=O (stereo not drawn)
inactive: [16] 100 % of control | [17] 94 % of control | dose: 400.0 mg/kg/injection, schedule: Q04DX002 (ip), vehicle: saline 98 % of control

O=C1CCC2OC3CCC(=O)N3CN12 (stereo not drawn)
inactive: [14] 97 % of control | [18] 98 % of control | [19] 98 % of control

O=[Se]([O][Sn]([O][Se](=O)c1ccccc1)([O][Se](=O)c1ccccc1)[O][Se](=O)c1ccccc1)c1ccccc1 (stereo not drawn)
inactive: [20] 98 % of control | [21] 103 % of control | [4] 110 % of control and 118 % of control

N#CC(C(=O)CCCC(=O)Nc1cccc([N+](=O)[O-])c1)c1cccc2ccccc12 (stereo not drawn)
inactive: [22] 104 % of control | [23] 108 % of control | [24] 101 % of control

Nc1ccc(S(=O)(=O)NC2C(O)OC(CO)C(O)C2O)cc1 (stereo not drawn)
inactive: [14] 98 % of control | [18] 96 % of control | [19] 97 % of control

COc1ccnc(-c2cc(OC)cc(/C(N)=N/O)n2)c1
inactive: [22] 100 % of control | [23] 105 % of control | [24] 100 % of control

CC(C)(O)c1cccs1
inactive: [7] 100 % of control | [8] 100 % of control | [9] 99 % of control

Cc1sc(C)c(CCl)c1CCl
inactive: [20] 113 % of control | [21] 118 % of control | dose: 37.5 mg/kg/injection, schedule: Q01DX009 (ip), vehicle: saline with Tween-80 122 % of control | [4] 118 % of control

CC(=O)OCC1=C(c2ccccc2)S(=O)(=O)c2ccccc2C1=O
inactive: [11] 108 % of control | [12] 106 % of control

CCOC(=O)c1cc(OCC)c(OCC)c(OCC)c1N
inactive: [4] 100 % of control | [5] 100 % of control | [6] 111 % of control

O=C(c1ccccc1)C(CN1CCOCC1)CN1CCOCC1
inactive: dose: 50.0 mg/kg/injection, schedule: Q01DX009 (ip), vehicle: saline 119 % of control | dose: 100.0 mg/kg/injection, schedule: Q01DX009 (ip), vehicle: saline 116 % of control

O=C1CC2(Cl)CN3c4ccccc4C(=O)CC3(Cl)CN2c2ccccc21 (stereo not drawn)
inactive: dose: 12.5 mg/kg/injection, schedule: Q04DX003 (ip), vehicle: alcohol 100 % of control and 106 % of control | dose: 25.0 mg/kg/injection, schedule: Q04DX003 (ip), vehicle: alcohol 99 % of control and 106 % of control | dose: 50.0 mg/kg/injection, schedule: Q04DX003 (ip), vehicle: alcohol 100 % of control and 108 % of control

CNC[C@@H](O)c1ccc(O)c(O)c1
inactive: dose: 0.78 mg/kg/injection, schedule: Q01DX009 (ip), vehicle: suspension in saline 97 % of control | dose: 1.56 mg/kg/injection, schedule: Q01DX009 (ip), vehicle: suspension in saline 104 % of control | dose: 3.12 mg/kg/injection, schedule: Q01DX009 (ip), vehicle: suspension in saline 104 % of control

O=C(N/C(=C\c1ccccc1Cl)c1nc2ccccc2s1)c1ccccc1
inactive: [22] 113 % of control | [23] 113 % of control | [24] 102 % of control
